*1 amine or outer side, *2 acyl side, *3 side chain or, on linkers, in order; H or OH if unused. Where a SMILES comes first, the peptide text is derived from it. Bridges are numbered along the chain shown (N, C = ends). [ ]: non-standard residue; d: D form. The star is where a group is joined. hPhe(3-Cl-4-CF3) = N[C@@H](CCc1ccc(C(F)(F)F)c(Cl)c1)C(=O)O; NPrPhe(4-CF3) = CCCN[C@@H](Cc1ccc(C(F)(F)F)cc1)C(=O)O; X28 = Cc1ccc(C[C@@H](C(=O)[*:2])N(CC2CCCCC2)[*:1])cc1; NEtAsp = CCN([C@@H](CC(=O)[*:3])C(=O)[*:2])[*:1]; NMeGly(cPent) = CN[C@H](C(=O)O)C1CCCC1; Hyp = O=C(O)[C@@H]1C[C@@H](O)CN1; NMeD = CN[C@@H](CC(=O)O)C(=O)O; NMeL = CN[C@@H](CC(C)C)C(=O)O; NMeNva = CCC[C@H](NC)C(=O)O; Morpholide = C1CN(*)CCO1; NMeA = CN[C@@H](C)C(=O)O; Ac5c = NC1(C(=O)O)CCCC1; Aze = O=C(O)[C@@H]1CCN1; Ac4c = NC1(C(=O)O)CCC1; Sar = CNCC(=O)O
Legend:
[1] = molecular target: HRAS wild-type protein (Homo sapiens, UniProt P01112); experiment: Binding to HRAS by surface plasmon resonance (SPR), KD and KD ratio to KRAS
Chain of HRAS wild-type protein (P01112 whole entry): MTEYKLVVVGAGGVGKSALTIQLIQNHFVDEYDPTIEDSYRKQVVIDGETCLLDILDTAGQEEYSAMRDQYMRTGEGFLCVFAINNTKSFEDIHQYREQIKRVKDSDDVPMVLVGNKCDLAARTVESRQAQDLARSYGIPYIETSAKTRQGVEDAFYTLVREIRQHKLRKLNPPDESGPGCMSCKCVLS
Procedure, shortened: (§1)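 Recombinant RAS proteins bearing a biotinylated Avi tag and loaded with GDP served as the captured ligand, recaptured fresh every cycle. Binding responses were referenced to an uncoated surface and a buffer-only blank cycle. Dissociation constants were obtained by 1:1 model fitting at 30°C.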

[2] = tested on: human lung cancer strain NCI-H441; type: cell-based
Procedure, shortened: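 Signal came from […] measured per well once the reagent was added. Beforehand, cells were cultured at 37°C and 5% carbon dioxide on a compound series serially diluted in dimethyl sulfoxide.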

[3] = molecular target: GDP-bound NRAS wild-type protein (Homo sapiens, UniProt P01111); experiment: Binding to NRAS by surface plasmon resonance (SPR), KD and KD ratio to KRAS
Chain of GDP-bound NRAS wild-type protein (P01111 whole entry): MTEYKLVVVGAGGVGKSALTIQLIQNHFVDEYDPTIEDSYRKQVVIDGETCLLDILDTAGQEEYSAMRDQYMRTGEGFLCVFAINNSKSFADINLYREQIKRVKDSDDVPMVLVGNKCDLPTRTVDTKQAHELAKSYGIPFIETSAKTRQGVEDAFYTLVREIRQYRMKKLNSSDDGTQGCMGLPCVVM
Procedure, shortened: as §1

[4] = ratio of KD for HRAS wild-type protein to KD for KRAS
[5] = ratio of KD for GDP-bound NRAS wild-type protein to KD for KRAS
[6] = ratio of the KD value with respect to HRAS wild-type protein to the KD value with respect to KRAS
[7] = ratio of the KD value with respect to GDP-bound NRAS wild-type protein to the KD value with respect to KRAS

CC[C@H](C)[C@@H]1NC(=O)[C@H](CC2CC2)N(C)C(=O)C[C@@H](C(=O)N(C)C)N(C)C(=O)[C@H](C2CCCC2)N(C)C(=O)C2(CC(C)(C)C2)NC(=O)[C@@H]2C[C@@H](C(F)(F)F)CN2C(=O)[C@H](CCc2cc(F)c(C(F)(F)F)c(F)c2)NC(=O)CN(C)C(=O)[C@H](Cc2ccc(F)cc2)N2CC/C=C\C[C@@H](C2=O)N(C)C(=O)CN(C)C1=O [PP1507]
HRAS /KRAS ([1]; ratio of KD value for HRAS wild-type protein to KD value for KRAS (SPR)): A (a compound having 10 or more and less than 20 is denoted as A)
IC50 [2]: 16.2 nM
NRAS /KRAS ([3]; ratio of KD value for GDP-bound NRAS wild-type protein to KD value for KRAS (SPR)): A (a compound having 10 or more and less than 20 is denoted as A)

CC[C@H](C)[C@@H]1NC(=O)[C@H](COC)N(C)C(=O)C[C@@H](C(=O)N2CCOCC2)N(C)C(=O)[C@H](C2CCCC2)N(C)C(=O)C2(CCC2)NC(=O)[C@@H]2CCN2C(=O)[C@H](CCc2cc(F)c(C(F)(F)F)c(F)c2)NC(=O)CN(C)C(=O)[C@H](Cc2ccc(C(F)(F)F)cc2)N2CCCCC[C@@H](C2=O)N(C)C(=O)CN(C)C1=O [PP0840]
HRAS /KRAS [1, 4]: B (a compound having 3 or more and less than 10 is denoted as B)
IC50 [2]: 572 nM
NRAS /KRAS [3, 5]: B (a compound having 3 or more and less than 10 is denoted as B)

CC[C@H](C)[C@@H]1NC(=O)[C@H](CC(C)C)N(C)C(=O)C[C@@H](C(=O)N2CCOCC2)N(C)C(=O)[C@H](C2CCCC2)N(C)C(=O)C2(CCCC2)NC(=O)[C@@H]2CCCN2C(=O)[C@H](CCc2ccc(C(F)(F)F)c(Cl)c2)NC(=O)CN(C)C(=O)[C@H](Cc2ccc(C)cc2)N(CC2CCCCC2)C(=O)CN(C)C(=O)CN(C)C1=O [PP0097] ([NMeL]I[Sar][Sar][X28][Sar][hPhe(3-Cl-4-CF3)]P[Ac5c][NMeGly(cPent)][NMeD]-Morpholide; lactam N-11)
HRAS /KRAS [1, 4]: C (A compound having a KD ratio of 0.1 or more and less than 3 is denoted as C)
IC50 [2]: 240 nM
NRAS /KRAS [3, 5]: C (A compound having a KD ratio of 0.1 or more and less than 3 is denoted as C)

CCC[C@H]1C(=O)N[C@@H]([C@@H](C)CC)C(=O)N(C)[C@@H](C)C(=O)N2CC[C@H]2C(=O)N(CCC)[C@@H](Cc2ccc(C(F)(F)F)cc2)C(=O)N(C)CC(=O)N[C@@H](CCc2ccc(C(F)(F)F)c(Cl)c2)C(=O)N2CCC[C@H]2C(=O)NC2(CCC2)C(=O)N(C)[C@@H](C2CCCC2)C(=O)N(CC)[C@H](C(=O)N2CCOCC2)CC(=O)N1C [PP1955] ([NMeNva]I[NMeA][Aze][NPrPhe(4-CF3)][Sar][hPhe(3-Cl-4-CF3)]P[Ac4c][NMeGly(cPent)][NEtAsp]-Morpholide; lactam N-11)
HRAS /KRAS [1, 6]: B (a compound having 3 or more and less than 10 is denoted as B)
IC50 [2]: 4.4 nM
NRAS /KRAS [3, 7]: C (A compound having a KD ratio of 0.1 or more and less than 3 is denoted as C)

CCC(CC)[C@H]1C(=O)N(C)[C@H](C(=O)N(C)C)CC(=O)N(C)[C@@H](COC)C(=O)N[C@@H]([C@@H](C)CC)C(=O)N(C)CC(=O)N(C)[C@H]2C/C=C\CCN(C2=O)[C@@H](Cc2ccc(C(F)(F)F)cc2)C(=O)N(C)CC(=O)N[C@@H](CCc2ccc(C(F)(F)F)c(Cl)c2)C(=O)N2CC3(CC3)C[C@H]2C(=O)NC2(CC(C)(C)C2)C(=O)N1C [PP2965]
HRAS /KRAS [1, 4]: A (a compound having 10 or more and less than 20 is denoted as A)
IC50 [2]: 27.1 nM
NRAS /KRAS [3, 5]: AA (a compound having 20 or more is denoted as AA)

CCC[C@H]1C(=O)N[C@@H]([C@@H](C)CC)C(=O)N(C)CC(=O)N(C)[C@H]2C/C=C\CCN(C2=O)[C@@H](Cc2ccc(C(F)(F)F)cc2)C(=O)N(C)CC(=O)N[C@@H](CCc2ccc(Cl)c(C(F)(F)F)c2)C(=O)N2C[C@H](OCC)C[C@H]2C(=O)NC2(CC(C)(C)C2)C(=O)N(C)[C@@H](C2CCCC2)C(=O)N(C)[C@H](C(=O)N(C)C)CC(=O)N1C [PP2784]
HRAS /KRAS [1, 4]: A (a compound having 10 or more and less than 20 is denoted as A)
IC50 [2]: 7.2 nM
NRAS /KRAS [3, 5]: A (a compound having 10 or more and less than 20 is denoted as A)

CCCN1C(=O)[C@@H]2CCN2C(=O)CN(C)C(=O)[C@H]([C@@H](C)CC)NC(=O)[C@H](CC(C)C)N(C)C(=O)C[C@@H](C(=O)N2CCOCC2)N(C)C(=O)[C@H](C2CCCC2)N(C)C(=O)C2(CCC2)NC(=O)[C@@H]2C[C@@H](OCC)CN2C(=O)[C@H](CCc2ccc(C(F)(F)F)c(Cl)c2)NC(=O)CN(C)C(=O)[C@@H]1Cc1ccc(C(F)(F)F)cc1 [PP0411] ([NMeL]I[Sar][Aze][NPrPhe(4-CF3)][Sar][hPhe(3-Cl-4-CF3)][Hyp](Et)[Ac4c][NMeGly(cPent)][NMeD]-Morpholide; lactam N-11)
HRAS /KRAS [1, 6]: C (A compound having a KD ratio of 0.1 or more and less than 3 is denoted as C)
IC50 [2]: 2.8 nM
NRAS /KRAS [3, 7]: C (A compound having a KD ratio of 0.1 or more and less than 3 is denoted as C)
